The values that follow come from patent publication US20260078119A1, “DEGRADER COMPOUNDS AND USES THEREOF” (Bristol-Myers Squibb Company, priority 2024, published 2026).

A value given as a limit tells only on which side of the number the result lay.

The test system of one assay is CAL-51 cells. Kind of assay: CAL-51 Cell Proliferation Assay. Format: cell-based. Particulars: for EC50: Homo sapiens, 120 hours incubation, 10-point dose response, 4-fold dilutions starting at 10 μM, Cell-Titer-Glo, read-out: CAL-51 Prolif EC50; for CAL-51 Prolif Ymin: minimal percent of DMSO control observed in the concentrations tested (Ymin-obs), 120 hours. Summed up:
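Cells seeded at 350/well in RPMI complete medium onto 10-point, 4-fold compound dilutions from 10 μM (0.1% DMSO), in duplicate, and grown 120 h at 37 °C. CellTiter-Glo luminescence, blank-subtracted and normalised to DMSO, was fitted with a four-parameter logistic to give EC50; Ymin-obs is the lowest observed percent of DMSO control.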

In another assay the target is T1, FAK (Homo sapiens, UniProt Q05397).
T1 construct: homozygous knock-in of a HiBiT tag (Promega Corporation, Madison, WI) to the C-terminus of the FAK gene in its natural genomic locus; endogenous in cells; host or cells: JHH-4-FAK-HiBiT clone d01 (CRISPR-Cas9 knock-in at the endogenous locus)
Kind of assay: FAK-HiBiT Degradation Assay. To be noted: for DC50: JHH-4-FAK-HiBiT clone d01 cells, two hours incubation, 10-point dose response, 3-fold dilution starting at 1 μM, Nano-Glo HiBiT luminescence, read-out: FAK HiBiT EC50; for FAK HiBiT Ymin: lower limit of the four parameter fit (value A), Ymax derived using DMSO control, JHH-4-FAK-HiBiT cells, two hours. It counts as cell-based. An outline of the steps:
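JHH-4 cells with homozygous CRISPR knock-in of C-terminal HiBiT on endogenous FAK, treated 2 h at 37 °C with compounds in 10-point 3-fold series from 1 μM. HiBiT lytic luminescence read; EC50 from four-parameter logistic fit, Ymax set by DMSO control, Ymin as lower fit limit.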

T1 sequence (Q05397 whole entry): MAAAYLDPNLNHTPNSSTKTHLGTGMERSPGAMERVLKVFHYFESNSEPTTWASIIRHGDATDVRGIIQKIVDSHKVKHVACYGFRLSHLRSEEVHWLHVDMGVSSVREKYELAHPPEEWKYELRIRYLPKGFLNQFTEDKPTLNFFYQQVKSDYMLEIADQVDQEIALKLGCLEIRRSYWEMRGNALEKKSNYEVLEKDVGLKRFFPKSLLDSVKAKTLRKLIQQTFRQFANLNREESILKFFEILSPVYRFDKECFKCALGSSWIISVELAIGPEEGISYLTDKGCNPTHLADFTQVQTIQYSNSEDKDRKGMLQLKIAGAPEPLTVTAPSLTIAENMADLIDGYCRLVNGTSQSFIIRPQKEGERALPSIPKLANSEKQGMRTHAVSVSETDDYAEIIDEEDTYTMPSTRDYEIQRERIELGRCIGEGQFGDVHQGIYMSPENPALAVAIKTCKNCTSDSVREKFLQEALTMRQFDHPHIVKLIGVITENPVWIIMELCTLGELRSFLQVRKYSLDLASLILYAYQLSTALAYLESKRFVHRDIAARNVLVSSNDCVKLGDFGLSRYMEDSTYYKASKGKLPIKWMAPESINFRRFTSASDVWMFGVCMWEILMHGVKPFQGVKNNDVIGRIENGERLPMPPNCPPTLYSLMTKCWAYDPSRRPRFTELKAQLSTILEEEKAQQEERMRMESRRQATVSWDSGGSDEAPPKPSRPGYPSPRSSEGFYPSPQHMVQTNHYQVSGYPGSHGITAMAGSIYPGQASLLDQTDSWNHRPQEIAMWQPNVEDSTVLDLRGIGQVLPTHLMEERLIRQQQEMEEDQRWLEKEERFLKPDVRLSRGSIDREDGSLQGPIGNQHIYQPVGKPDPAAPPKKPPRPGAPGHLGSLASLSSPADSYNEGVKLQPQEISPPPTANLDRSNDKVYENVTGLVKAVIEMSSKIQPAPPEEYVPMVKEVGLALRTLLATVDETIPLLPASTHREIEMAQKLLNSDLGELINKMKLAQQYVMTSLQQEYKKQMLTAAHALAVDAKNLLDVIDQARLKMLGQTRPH

For the compound `N#Cc1ccc(-c2c(F)c(N3CC(F)C3)nc3c2cnn3Cc2ccc3c(c2)CN(C2CCC(=O)NC2=O)C3=O)c(F)c1` (stereo not drawn) [Example 41, 4-(1-{[2-(2,6-dioxopiperidin-3-yl)-1-oxo-2,3-dihydro-1H-isoindol-5-yl]methyl}-5-fluoro-6-(3-fluoroazetidin-1-yl)-1H-pyrazolo[3,4-b]pyridin-4-yl)-3-fluorobenzonitrile], in the assay on CAL-51 cells, the concentration giving a half-maximal response (EC50) was found to be 1.23 nM and the “CAL-51 Prolif Ymin” value came out at 26.68. For the same compound, on FAK, the DC50 is 1.22 nM and the “FAK HiBiT Ymin” value is 10.49.
Consider `O=C1CCC(N2Cc3cc(Cn4ncc5c(-c6ncc(C(F)(F)F)cc6Cl)cc(NC6CC6)nc54)ccc3C2=O)C(=O)N1` (stereo not drawn) [Example 98, 3-[5-({4-[3-chloro-5-(trifluoromethyl)pyridin-2-yl]-6-(cyclopropyl-amino)-1H-pyrazolo[3,4-b]pyridin-1-yl}methyl)-1-oxo-2,3-dihydro-1H-isoindol-2-yl]piperidine-2,6-dione], for which, in the assay with CAL-51 cells, the 50% effective concentration (EC50) was determined as 3.66 nM and the “CAL-51 Prolif Ymin” value is 39.93. Besides, on FAK, the DC50 was 24.4 nM and the “FAK HiBiT Ymin” value was 32.32.
As to `CC(C)Nc1cc(-c2ncc(C(F)(F)F)cc2Cl)c2cnn(Cc3ccc4c(c3)CN([C@H]3CCC(=O)NC3=O)C4=O)c2n1` [Example 45, (3S)-3-[5-({4-[3-chloro-5-(trifluoromethyl)pyridin-2-yl]-6-[(propan-2-yl)amino]-1H-pyrazolo[3,4-b]pyridin-1-yl}methyl)-1-oxo-2,3-dihydro-1H-isoindol-2-yl]piperidine-2,6-dione], in the assay on CAL-51 cells, the EC50 turned out to be 0.76 nM and the “CAL-51 Prolif Ymin” value worked out at 30.48. On FAK, the DC50 is 1.76 nM and the “FAK HiBiT Ymin” value is reported as 6.88.
Take `O=C1CCC(N2Cc3cc(Cn4ncc5c(-c6ccc(C(F)(F)F)cc6Cl)cc(N6CC(F)C6)nc54)ccc3C2=O)C(=O)N1` (stereo not drawn) [Example 48, 3-[5-({4-[2-chloro-4-(trifluoromethyl)phenyl]-6-(3-fluoroazetidin-1-yl)-1H-pyrazolo[3,4-b]pyridin-1-yl}methyl)-1-oxo-2,3-dihydro-1H-isoindol-2-yl]piperidine-2,6-dione]: in the assay on CAL-51 cells, the EC50 turned out to be 0.52 nM and the “CAL-51 Prolif Ymin” value came to 19.89. Moreover, at FAK, the DC50 is 1.87 nM and the “FAK HiBiT Ymin” value turned out to be 8.06.
Regarding `Cc1cc(C(F)(F)F)ccc1-c1cc(N2CC[C@H](O)C2)nc2c1cnn2Cc1ccc2c(c1)CN([C@H]1CCC(=O)NC1=O)C2=O` [Example 63, (3S)-3-[5-({6-[(3S)-3-hydroxypyrrolidin-1-yl]-4-[2-methyl-4-(trifluoromethyl)phenyl]-1H-pyrazolo[3,4-b]pyridin-1-yl}methyl)-1-oxo-2,3-dihydro-1H-isoindol-2-yl]piperidine-2,6-dione], in the assay on CAL-51 cells, the 50% effective concentration (EC50) amounted to 1.92 nM and the “CAL-51 Prolif Ymin” value is 31.58. Also, on FAK, the DC50 was 4.08 nM and the “FAK HiBiT Ymin” value is reported as 8.81.
Taken in the same sequence, the figures for `O=C1CCC(N2Cc3cc(Cn4ncc5c(-c6ncccc6Br)cc(N6CC(F)C6)nc54)ccc3C2=O)C(=O)N1` (stereo not drawn) [Example 93, 3-(5-{[4-(3-bromopyridin-2-yl)-6-(3-fluoroazetidin-1-yl)-1H-pyrazolo[3,4-b]pyridin-1-yl]methyl}-1-oxo-2,3-dihydro-1H-isoindol-2-yl)piperidine-2,6-dione] were 9.36 nM, 36.26, 15.5 nM and 16.43.
For `Cc1cc(F)cnc1-c1cc(N2CC[C@H](O)C2)nc2c1cnn2Cc1ccc2c(c1)CN([C@H]1CCC(=O)NC1=O)C2=O` [Example 125, (3S)-3-(5-{[4-(5-fluoro-3-methylpyridin-2-yl)-6-[(3S)-3-hydroxypyrrolidin-1-yl]-1H-pyrazolo[3,4-b]pyridin-1-yl]methyl}-1-oxo-2,3-dihydro-1H-isoindol-2-yl)piperidine-2,6-dione], in the assay with CAL-51 cells, the concentration for a half-maximal effect (EC50) is 262 nM and the “CAL-51 Prolif Ymin” value amounted to 34.48. Besides, at FAK, the DC50 is 149 nM and the “FAK HiBiT Ymin” value is given as 29.00.
Turning to `O=C1CC[C@H](N2Cc3cc(Cn4ncc5c(-c6ncc(C(F)(F)F)cc6Cl)cc(N6CCC(O)C6)nc54)ccc3C2=O)C(=O)N1` (stereo in doubt) [Example 106, (3S)-3-[5-({4-[3-chloro-5-(trifluoromethyl)pyridin-2-yl]-6-[(3R)-3-hydroxypyrrolidin-1-yl]-1H-pyrazolo[3,4-b]pyridin-1-yl}methyl)-1-oxo-2,3-dihydro-1H-isoindol-2-yl]piperidine-2,6-dione], in the assay with CAL-51 cells, the 50% effective concentration (EC50) came out at 54.6 nM and the “CAL-51 Prolif Ymin” value is 53.56. In addition, on FAK, the DC50 worked out at 37.9 nM and the “FAK HiBiT Ymin” value came out at 17.24.
In the case of `CN(c1cc(-c2ncc(C(F)(F)F)cc2Cl)c2cnn(Cc3ccc4c(c3)CN([C@H]3CCC(=O)NC3=O)C4=O)c2n1)[C@H]1C[C@](C)(O)C1` [Example 107, (3S)-3-[5-({4-[3-chloro-5-(trifluoromethyl)pyridin-2-yl]-6-{methyl[(1s,3r)-3-hydroxy-3-methylcyclobutyl]amino}-1H-pyrazolo[3,4-b]pyridin-1-yl}methyl)-1-oxo-2,3-dihydro-1H-isoindol-2-yl]piperidine-2,6-dione], in the assay with CAL-51 cells, the EC50 came to 8.44 nM and the “CAL-51 Prolif Ymin” value was found to be 44.59. Besides, on FAK, the DC50 worked out at 38.3 nM and the “FAK HiBiT Ymin” value is listed as 18.14.
Taken in the same sequence, the figures for `O=C1CC[C@H](N2Cc3cc(Cn4ncc5c(-c6ncc(C(F)(F)F)cc6Cl)c(Cl)c(N6CC(F)C6)nc54)ccc3C2=O)C(=O)N1` [Example 2, (3S)-3-[5-({5-chloro-4-[3-chloro-5-(trifluoromethyl)pyridin-2-yl]-6-(3-fluoroazetidin-1-yl)-1H-pyrazolo[3,4-b]pyridin-1-yl}methyl)-1-oxo-2,3-dihydro-1H-isoindol-2-yl]piperidine-2,6-dione] were 0.43 nM, 14.10, 0.24 nM and 7.25.
On to `O=C1CC[C@H](N2Cc3cc(Cn4ncc5c(-c6ncc(C(F)(F)F)cc6Cl)cc(NCCF)nc54)ccc3C2=O)C(=O)N1` [Example 146, (S)-3-(5-((4-(3-chloro-5-(trifluoromethyl)pyridin-2-yl)-6-((2-fluoroethyl)amino)-1H-pyrazolo[3,4-b]pyridin-1-yl)methyl)-1-oxoisoindolin-2-yl)piperidine-2,6-dione], for which, in the assay with CAL-51 cells, the EC50 came out at 9.4 nM and the “CAL-51 Prolif Ymin” value is on record as 57.23. In addition, at FAK, the DC50 was determined as 13.1 nM and the “FAK HiBiT Ymin” value is 22.43.
In the case of `O=C1CC[C@H](N2Cc3cc(Cn4ncc5c(-c6ncc(C(F)(F)F)cc6Cl)c(F)c(N6CC(F)C6)nc54)ccc3C2=O)C(=O)N1` [Example 1, (3S)-3-[5-({4-[3-chloro-5-(trifluoromethyl)pyridin-2-yl]-5-fluoro-6-(3-fluoroazetidin-1-yl)-1H-pyrazolo[3,4-b]pyridin-1-yl}methyl)-1-oxo-2,3-dihydro-1H-isoindol-2-yl]piperidine-2,6-dione], in the assay on CAL-51 cells, the EC50 is 0.17 nM and the “CAL-51 Prolif Ymin” value amounted to 27.59. Besides, on FAK, the DC50 came out at 0.14 nM and the “FAK HiBiT Ymin” value is 7.57.
Taken in the same sequence, the figures for `O=C1CC[C@H](N2Cc3cc(Cn4ncc5c(-c6ncc(OC(F)F)cc6Cl)cc(N6CC(F)C6)nc54)ccc3C2=O)C(=O)N1` [Example 49, (3S)-3-[5-({4-[3-chloro-5-(difluoromethoxy)pyridin-2-yl]-6-(3-fluoroazetidin-1-yl)-1H-pyrazolo[3,4-b]pyridin-1-yl}methyl)-1-oxo-2,3-dihydro-1H-isoindol-2-yl]piperidine-2,6-dione] were 0.37 nM, 23.11, 2 nM and 7.78.
As for `C[C@]1(O)CCN(c2cc(-c3ncc(C(F)(F)F)cc3Cl)c3cnn(Cc4ccc5c(c4)CN([C@H]4CCC(=O)NC4=O)C5=O)c3n2)C1` [Example 102, (3S)-3-[5-({4-[3-chloro-5-(trifluoromethyl)pyridin-2-yl]-6-[(3S)-3-hydroxy-3-methylpyrrolidin-1-yl]-1H-pyrazolo[3,4-b]pyridin-1-yl}methyl)-1-oxo-2,3-dihydro-1H-isoindol-2-yl]piperidine-2,6-dione], in the assay with CAL-51 cells, the 50% effective concentration (EC50) came to 10.9 nM and the “CAL-51 Prolif Ymin” value stood at 35.36. At FAK, the DC50 amounted to 29.6 nM and the “FAK HiBiT Ymin” value stood at 12.65.
Turning to `O=C1CCC(N2Cc3cc(Cn4ncc5c(-c6ncc(C(F)(F)F)cc6Cl)cc(N[C@@H]6CCOC6)nc54)ccc3C2=O)C(=O)N1` (stereo partly drawn) [Example 133, 3-[5-({4-[3-chloro-5-(trifluoromethyl)pyridin-2-yl]-6-{[(3R)-oxolan-3-yl]amino}-1H-pyrazolo[3,4-b]pyridin-1-yl}methyl)-1-oxo-2,3-dihydro-1H-isoindol-2-yl]piperidine-2,6-dione], in the assay on CAL-51 cells, the 50% effective concentration (EC50) came to 23.3 nM and the “CAL-51 Prolif Ymin” value was 84.63. At FAK, the DC50 is not below 1000 nM and the “FAK HiBiT Ymin” value turned out to be 82.45.

Usually EC50 stands for the midpoint of the concentration-response curve.
